PMC11864979, “First-in-class ultralong-target-residence-time p38α inhibitors as a mitosis-targeted therapy for colorectal cancer” (Nature Cancer, 2025)
Several values for one entry are separate records, joined by “and”; a condition that tells them apart may be missing. Equal values may be shown once. Read-outs that look alike come from different tables or passages of the source.

Key:
COLO 205 = experiment: cell viability in human CRC cell line COLO 205; type: cell-based; details: 4 d
Experimental: (§1) To generate KAP^2D cells, KAP organoids were isolated from Matrigel, fragmented by mechanical dissociation and plated without any extracellular matrix on common cell culture dishes. Phoenix-Eco packaging cells (CRL-3214), HCT-15 (CCL-225), HCT 116 (CCL-247), COLO 205 (CCL-222), LS 174T (CL-188), RKO (CRL-2577) and HT-29 (HTB-38) were obtained from the American Type Culture Collection. The cells were cultured at 37 °C and 7% CO2 with RPMI (KAP^2D cells) or DMEM (other cell lines), supplemented with 10% FBS and penicillin–streptomycin. KAP^2D cells were authenticated using PCR (Kras locus and Trp53 locus). Phoenix-Eco packaging cells and HCT-15, HCT 116, COLO 205, LS 174T, RKO and HT-29 cells were authenticated by the provider using short tandem repeat profiling. No commonly misidentified cell lines were used. Mycoplasma contamination was excluded by a PCR-based analysis.
(§2) For in vitro treatment studies, organoids were mechanically dissociated and digested using TrypLE supplemented with 100 µg ml^−1 DNaseI and 10.5 µM Y-27632 dihydrochloride (Invitrogen) at 37 °C. A total of 1,000–2,000 single cells were plated per well in white 96-well plates (Greiner) in culture medium containing 10% GFR Matrigel or Cultrex BME. The treatment with doxycycline (5 µg ml^−1), pharmacological inhibitors or corresponding volumes of DMSO was started 24 h after plating. Doxycycline was obtained from Sigma-Aldrich. […] Cell viability was measured by means of CellTiter-Glo 3D or CellTiter-Glo 2.0 reagent (Promega) according to the manufacturers’ instructions and the Infinite M Plex reader (Tecan, i-control version 3.9.1 software). Results were normalized to vehicle (DMSO) or to shNC. For cell-doubling assays, the cell number was quantified at the corresponding time points using Guava EasyCyte flow cytometer (Luminex, CytoSoft v5.2 software).

LS 174T = experiment: cell viability in human CRC cell line LS 174T; type: cell-based; details: 4 d
Experimental: The cells were cultured at 37 °C and 7% CO2 with RPMI (KAP^2D cells) or DMEM (other cell lines), supplemented with 10% FBS and penicillin–streptomycin. […] No commonly misidentified cell lines were used. Mycoplasma contamination was excluded by a PCR-based analysis.

RKO = experiment: cell viability in human CRC cell line RKO; type: cell-based; details: ED Fig. 9g, replicates
Experimental: as §1, §2

KAP^2D cells = experiment: quantification of viable KAP^2D cells over time (cell-doubling assay); type: cell-based, mouse; details: Fig. 4i
Experimental: The treatment with doxycycline (5 µg ml^−1), pharmacological inhibitors or corresponding volumes of DMSO was started 24 h after plating. […] Cell viability was measured by means of CellTiter-Glo 3D or CellTiter-Glo 2.0 reagent (Promega) according to the manufacturers’ instructions and the Infinite M Plex reader (Tecan, i-control version 3.9.1 software). Results were normalized to vehicle (DMSO) or to shNC. For cell-doubling assays, the cell number was quantified at the corresponding time points using Guava EasyCyte flow cytometer (Luminex, CytoSoft v5.2 software).

## O=C(NCCN1CCOCC1)c1ccc2c(c1)C(=O)c1ccc(Nc3ccc(F)c(NC(=O)c4ccccc4)c3)cc1CC2 [Compound 1639]
COLO 205; 0.3704 µM
  COLO 205 Cell viability (%): 100.71% and 94.45% and 83.28% and 88.21% and 85.79%
COLO 205; 1.1111 µM
  COLO 205 Cell viability (%): 89.26% and 96.25% and 98.03% and 68.45% and 75.66% and 76.80%
COLO 205; Homo sapiens, COLO 205, 96 h, 0.0137 µM
  viability at 0.0137 µM: 98.5%
COLO 205; Homo sapiens, COLO 205, 96 h, 0.3704 µM
  viability at 0.3704 µM: 92.5%
LS 174T; 0.0137 µM
  LS 174T Cell viability (%): 96.96% and 98.13% and 93.47% and 92.87% and 103.70%
LS 174T; 0.0412 µM
  LS 174T Cell viability (%): 88.17% and 87.93% and 84.72% and 87.30% and 86.06%
LS 174T; 0.1235 µM
  LS 174T Cell viability (%): 73.32% and 74.11% and 80.93% and 80.83% and 84.53%
LS 174T; 0.3704 µM
  LS 174T Cell viability (%): 72.52% and 70.49% and 77.50% and 75.15% and 72.31%
LS 174T; 1.1111 µM
  LS 174T Cell viability (%): 73.18% and 76.23% and 79.82% and 74.44% and 73.58%
LS 174T; 3.3333 µM
  LS 174T Cell viability (%): 64.63% and 65.58% and 65.84% and 62.28% and 62.47%
LS 174T; 10.0000 µM
  LS 174T Cell viability (%): 22.96% and 24.63% and 23.18% and 23.96% and 22.77%
LS 174T; Homo sapiens, LS174T, 96 h, 0.0137 µM, read-out: LS 174T Cell viability (%)
  viability at 0.0137 µM: 95%
LS 174T; Homo sapiens, LS174T, 96 h, 0.0412 µM, read-out: LS 174T Cell viability (%)
  viability at 0.0412 µM: 81.8%
LS 174T; Homo sapiens, LS174T, 96 h, 0.1235 µM, read-out: LS 174T Cell viability (%)
  viability at 0.1235 µM: 73.7%
LS 174T; Homo sapiens, LS174T, 96 h, 0.3704 µM, read-out: LS 174T Cell viability (%)
  viability at 0.3704 µM: 74.4%
LS 174T; Homo sapiens, LS174T, 96 h, 1.1111 µM, read-out: LS 174T Cell viability (%)
  viability at 1.1111 µM: 77.1%
LS 174T; Homo sapiens, LS174T, 96 h, 3.3333 µM, read-out: LS 174T Cell viability (%)
  viability at 3.3333 µM: 68.9%
LS 174T; Homo sapiens, LS174T, 96 h, 10.0000 µM, read-out: LS 174T Cell viability (%)
  viability at 10 µM: 24.4%
RKO; 0.0137 µM, Repetition
  RKO Cell viability (%): 124.75% and 148.62% and 118.75%
RKO; 0.0137 µM, first experiment
  RKO Cell viability (%): 98.53% and 90.98%
RKO; 0.0412 µM, Repetition
  RKO Cell viability (%): 93.50% and 149.21% and 112.61%
RKO; 0.0412 µM, first experiment
  RKO Cell viability (%): 86.59% and 83.94%
RKO; 0.1235 µM, Repetition
  RKO Cell viability (%): 125.44% and 110.57%
RKO; 0.1235 µM, first experiment
  RKO Cell viability (%): 85.12% and 86.17%
RKO; 0.3704 µM, Repetition
  RKO Cell viability (%): 111.28% and 89.40%
RKO; 0.3704 µM, first experiment
  RKO Cell viability (%): 77.62% and 74.11%
RKO; 1.1111 µM, Repetition
  RKO Cell viability (%): 109.66% and 139.17% and 117.64%
RKO; 1.1111 µM, first experiment
  RKO Cell viability (%): 95.27% and 88.88%
RKO; 3.3333 µM, Repetition
  RKO Cell viability (%): 74.32% and 93.61% and 73.54%
RKO; 3.3333 µM, first experiment
  RKO Cell viability (%): 74.12% and 74.43%
RKO; 10.0000 µM, Repetition
  RKO Cell viability (%): 42.39% and 44.96%
RKO; 10.0000 µM, first experiment
  RKO Cell viability (%): 30.57% and 37.00%
RKO; Homo sapiens, RKO, 0.0137 µM, first experiment, read-out: RKO Cell viability (%)
  viability at 0.0137 µM: 96.7%
RKO; Homo sapiens, RKO, 0.0412 µM, first experiment, read-out: RKO Cell viability (%)
  viability at 0.0412 µM: 88.2%
RKO; Homo sapiens, RKO, 0.1235 µM, Repetition, read-out: RKO Cell viability (%)
  viability at 0.1235 µM: 111%
RKO; Homo sapiens, RKO, 0.1235 µM, first experiment, read-out: RKO Cell viability (%)
  viability at 0.1235 µM: 82.2%
RKO; Homo sapiens, RKO, 0.3704 µM, first experiment, read-out: RKO Cell viability (%)
  viability at 0.3704 µM: 86%
RKO; Homo sapiens, RKO, 1.1111 µM, first experiment, read-out: RKO Cell viability (%)
  viability at 1.1111 µM: 85.9%
RKO; Homo sapiens, RKO, 3.3333 µM, first experiment, read-out: RKO Cell viability (%)
  viability at 3.3333 µM: 75%
RKO; Homo sapiens, RKO, 10.0000 µM, Repetition, read-out: RKO Cell viability (%)
  viability at 10 µM: 43.1%
RKO; Homo sapiens, RKO, 10.0000 µM, first experiment, read-out: RKO Cell viability (%)
  viability at 10 µM: 31.2%
KAP^2D cells; 0 h of treatment
  Number of cells: 41307.05 and 44263.95 and 43595.63 and 48502.24 and 40389.64
KAP^2D cells; 12 h of treatment
  Number of cells: 90535.27 and 109902.14 and 96345.55 and 78642.86 and 78628.27 and 80020.34
KAP^2D cells; 24 h of treatment
  Number of cells: 118591.59 and 122111.73 and 126637.09 and 105052.10 and 107245.70 and 108446.50
KAP^2D cells; 36 h of treatment
  Number of cells: 147204.34 and 141762.38 and 180655.61 and 129977.80 and 144707.50 and 146373.80
KAP^2D cells; 48 h of treatment
  Number of cells: 236686.34 and 244575.91 and 256532.61 and 222624.00 and 201311.80 and 207320.10
KAP^2D cells; 60 h of treatment
  Number of cells: 438717.24 and 412186.50 and 425643.09 and 324012.80 and 330875.70 and 354806.50
